What was measured:
A549 = experiment: MTT cytotoxicity assay, 72 h; format: cell-based; conditions: Homo sapiens, A549 NSCLC cells, plated to confluence, read-out: IC50 (mean cytotoxic concentration, MTT)
Procedure: (§1) To determine whether the effects on cell viability in AML cells were related to the specific cancer subtypes, or to differences in temporal response to DJ4, we examined whether DJ4 affected the viability of various NSCLC cells over longer periods of drug exposure. MTT assays were performed on H1299, H226, A549, H522, H23, and H460 NSCLC cell lines. […] Similarly, the cell viability of MDA-MB-231 breast cancer cells was assessed by counting live/dead cell populations after a 24-h treatment with 1–10 µM concentrations of DJ4. A concentration-dependent increase in cell death from 29% (1 µM) to 47% (10 µM) was observed (Figure 2B).
(§2) The cytotoxic effect of DJ4 was studied in H1299, H226, A549, H522, H23, and H460 non-small cell lung cancer cells. The cells were seeded into 96-well plates with confluence ([…]). The cells were further treated with DMSO or DJ4 for 72 h. To study the effects of analogs, A549, A375M, and MDA-MB-231 cells were plated with low density (2000 cells/well) in a 96-well plate and grown overnight at 37 °C (with 5% CO2). Cells were treated with the analogs at the concentration of 0–10 µM for 48 h. At the end of the treatment period, cells were incubated with a tetrazolium dye MTT (3-(4,5-dimethylthiazol-2-yl)-2,5-diphenyltetrazolium bromide) reagent (Sigma) at 37 °C for 3 h to develop formazan crystals. The media was siphoned off and crystals were dissolved in DMSO and mixed gently on rocker for 5 min. Absorbance was read at 570 nm and 630 nm (background) wavelength. IC50 values were calculated from non-linear regression curve fit by using GraphPad Prism 5.0 software.

H1299 = experiment: MTT cytotoxicity assay, 72 h; format: cell-based; conditions: Homo sapiens, NCI-H1299, H1299 NSCLC cells, plated to confluence, read-out: IC50 (mean cytotoxic concentration, MTT)
Procedure: as §1, §2

H226 = experiment: MTT cytotoxicity assay, 72 h; format: cell-based; conditions: Homo sapiens, NCI-H226, H226 NSCLC cells, plated to confluence, read-out: IC50 (mean cytotoxic concentration, MTT)
Procedure: as §1, §2

H23 = experiment: MTT cytotoxicity assay, 72 h; format: cell-based; conditions: Homo sapiens, NCI-H23, H23 NSCLC cells, plated to confluence, read-out: IC50 (mean cytotoxic concentration, MTT)
Procedure: as §1, §2

H460 = experiment: MTT cytotoxicity assay, 72 h; format: cell-based; conditions: Homo sapiens, NCI-H460, H460 NSCLC cells, plated to confluence, read-out: IC50 (mean cytotoxic concentration, MTT)
Procedure: as §1, §2

H522 = experiment: MTT cytotoxicity assay, 72 h; format: cell-based; conditions: Homo sapiens, NCI-H522, H522 NSCLC cells, plated to confluence, read-out: IC50 (mean cytotoxic concentration, MTT)
Procedure: as §1, §2

A549 lung cancer cells = experiment: Colony forming assay; format: cell-based, human; conditions: then 14 days treatment-free, relative to control
Procedure: Figure 2 DJ4 reduces cell survival and inhibits colony forming ability of the cancer cells. (A) Different NSCLC cells were plated in a 96-well plate to confluence and then treated for 72 h. Cytotoxicity was assessed by MTT assay. The error bars indicate SEM of triplicates. (B) To assess cytotoxicity of DJ4 in breast cancer cells, MDA-MB-231 cells were treated for 24 h with indicated concentrations of DJ4. Percentage of live cells were counted using Muse^TM Live/Dead reagent and analyzed by Muse^TM cell analyzer. Error bars indicate SEM. n = 2. * p < 0.05. (C) DJ4 inhibits colony forming ability of A549 cells treated for 48 h. After a 48-h treatment, cells were seeded with number of cells mentioned in the table and were allowed to grow and form colonies. At the end of 14 days, colonies were stained and counted. Percent surviving fraction was calculated. The figure is the representative of the replicates. (D) The data are summarized in the table and represent the average of three replicates. TEXT PRINTED IN THE PICTURE: (D) DJ4: Surviving Fraction after 14 days (%): 2.3 (Concentration: 2.5μM; Number of cells plated: 2000; SEM: 0.1); Surviving Fraction after 14 days (%): 0.4 (Concentration: 5μM; Number of cells plated: 4000; SEM: 0.0); Surviving Fraction after 14 days (%): 0.1 (Concentration: 10μM; Number of cells plated: 8000; SEM: 0.0)
To further determine the effects of DJ4 on cell proliferation, we performed colony forming assays in A549 lung cancer cells. Forty-eight hours after the treatment with 2.5, 5.0, and 10 µM DJ4, individual cells were re-plated at low seeding density and colony formation was monitored for 14 days. The percent surviving fraction of cells relative to control cells that formed the distinct colonies were 2.3%, 0.4%, and 0.1% at 2.5, 5.0, and 10 µM, respectively, after 14 days of growth in a treatment-free culture medium (Figure 2C,D).

[1] = system: HL60VCR acute myeloid leukemia cells; experiment: Cell number and cell cycle in multidrug resistant cells; format: cell-based, human; conditions: 2.5 µM and 5 µM
Procedure: The following cell lines used in this study were obtained from ATCC: NSCLC (A549, CCL-185; H522, CRL-5810; H23, CRL-5800; H2126, CCL-256; H460, HTB-177), melanoma (A375M, CRL-1619), and breast cancer (MDA-MB-231, HTB-26). Cells were maintained in DMEM or RPMI media (Cellgro, Corning, NY, USA) supplemented with 10% fetal bovine serum (Gibco, Fisher Scientific, Hampton, NH, USA) and penicillin/streptomycin (Gibco, Fisher Scientific, Hampton, NH, USA) at 37 °C with 5% CO2 humidified incubator. Acute myeloid leukemia cells (AML, HL60; CCL240) were obtained from ATCC while vincristine resistant HL60 (HL60VCR) cells were a gift from Dr. Hong-Gang Wang (Penn State College of Medicine, Hershey, PA, USA) and both the cells were cultured in IMDM medium (HyClone, Washington, D.C., USA) with 10% FBS.
Figure S3. DJ4 was ineffective in multidrug resistant HL60VCR acute myeloid leukemia cells.
A. Endogenous expression of p-glycoprotein (P-gp) in HL60 and HL60VCR (multidrug resistant cells). β-Actin was used as internal control.
B. P-gp inhibitor cyclosporine A (CsA) treatment (2.5 µM) sensitized resistant cancer cells to DJ4. […] Number of cells were counted using MuseTM cell analyzer.
Statistical significance was analyzed by one-way ANOVA and Dunnett’s multiple comparison post-test. […]
C. […] The cells were treated at 2.5 µM and 5 µM concentrations and analyzed using flow cytometry. […]

O=C1N/C(=N\CCc2ccccc2)S/C1=C/c1c[nH]c2ncccc12 [DJ4]
IC50 (A549): 980 ± 210 nM | IC50 (H1299): 440 ± 40 nM | IC50 (H226): 670 ± 380 nM | IC50 (H23): 2910 ± 710 nM | IC50 (H460): 9530 nM | IC50 (H522): 1690 ± 480 nM | Surviving Fraction after 14 days (A549 lung cancer cells; A549, 2.5 µM for 48 h): 2.3% | Surviving Fraction after 14 days (A549 lung cancer cells; A549, 5.0 µM for 48 h): 0.4% | Surviving Fraction after 14 days (A549 lung cancer cells; A549, 10 µM for 48 h): 0.1% | effect in multidrug resistant cells [1]: ineffective

— article PMC10458458, “Characterization of Anticancer Effects of the Analogs of DJ4, a Novel Selective Inhibitor of ROCK and MRCK Kinases” (Pharmaceuticals, 2023)
